# Experiments:
# Test in all cases: relative viability (nuclei count vs DMSO), 5 days (fraction); higher = more cells survive
# Crizotinib + Navitoclax = compound: C[C@@H](Oc1cc(-c2cnn(C3CCNCC3)c2)cnc1N)c1c(Cl)ccc(F)c1Cl [Crizotinib] + CC1(C)CCC(c2ccc(Cl)cc2)=C(CN2CCN(c3ccc(C(=O)NS(=O)(=O)c4ccc(N[C@H](CCN5CCOCC5)CSc5ccccc5)c(S(=O)(=O)C(F)(F)F)c4)cc3)CC2)C1 [Navitoclax] (partner 0.5 µM)
# Summary of the method: (§1)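 Lung cancer cell lines were seeded in 1536-well plates and dosed by pin tool the next day, with either a single drug or a fixed anchor-drug dose combined with five library-drug doses (not always all listed) spaced in √10 steps. Five days later, one step fixed the cells and stained their nuclei (final 0.05% Triton X-100, 1% formaldehyde, 1 ug/ml Hoechst), and nuclei were counted on 4× images. Relative viability is the nuclei count in treated wells divided by the count in vehicle wells, and each value is the median of duplicate plates.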
# Crizotinib + Foretinib = compound: C[C@@H](Oc1cc(-c2cnn(C3CCNCC3)c2)cnc1N)c1c(Cl)ccc(F)c1Cl [Crizotinib] + COc1cc2c(Oc3ccc(NC(=O)C4(C(=O)Nc5ccc(F)cc5)CC4)cc3F)ccnc2cc1OCCCN1CCOCC1 [Foretinib] (partner 0.25 µM)
# Summary of the method: as §1
# Carfilzomib + Luminespib = compound: CC(C)C[C@H](NC(=O)[C@H](CCc1ccccc1)NC(=O)CN1CCOCC1)C(=O)N[C@@H](Cc1ccccc1)C(=O)N[C@@H](CC(C)C)C(=O)[C@@]1(C)CO1 [Carfilzomib] + CCNC(=O)c1noc(-c2cc(C(C)C)c(O)cc2O)c1-c1ccc(CN2CCOCC2)cc1 [Luminespib] (partner 0.01 µM)
# Summary of the method: as §1
# Carfilzomib + AZD7762 = compound: CC(C)C[C@H](NC(=O)[C@H](CCc1ccccc1)NC(=O)CN1CCOCC1)C(=O)N[C@@H](Cc1ccccc1)C(=O)N[C@@H](CC(C)C)C(=O)[C@@]1(C)CO1 [Carfilzomib] + NC(=O)Nc1cc(-c2cccc(F)c2)sc1C(=O)N[C@H]1CCCNC1 [AZD7762] (partner 0.2 µM)
# Summary of the method: as §1
Cell Line,relative viability (Crizotinib + Navitoclax; first compound 0.01 µM),relative viability (Crizotinib + Navitoclax; first compound 0.03162 µM),relative viability (Crizotinib + Navitoclax; first compound 0.1 µM),relative viability (Crizotinib + Navitoclax; first compound 0.3162 µM),relative viability (Crizotinib + Navitoclax; first compound 1 µM),relative viability (Crizotinib + Foretinib; first compound 0.01 µM),relative viability (Crizotinib + Foretinib; first compound 0.03162 µM),relative viability (Crizotinib + Foretinib; first compound 0.1 µM),relative viability (Crizotinib + Foretinib; first compound 0.3162 µM),relative viability (Crizotinib + Foretinib; first compound 1 µM),relative viability (Carfilzomib + Luminespib; first compound 0.001 µM),relative viability (Carfilzomib + Luminespib; first compound 0.003162 µM),relative viability (Carfilzomib + Luminespib; first compound 0.01 µM),relative viability (Carfilzomib + Luminespib; first compound 0.03162 µM),relative viability (Carfilzomib + Luminespib; first compound 0.1 µM),relative viability (Carfilzomib + AZD7762; first compound 0.001 µM),relative viability (Carfilzomib + AZD7762; first compound 0.003162 µM),relative viability (Carfilzomib + AZD7762; first compound 0.01 µM),relative viability (Carfilzomib + AZD7762; first compound 0.03162 µM),relative viability (Carfilzomib + AZD7762; first compound 0.1 µM)
Calu-6,0.8,0.766,0.836,0.774,0.735,0.855,0.938,0.86,0.947,0.927,–,–,–,–,–,–,–,–,–,–
NCI-H520,1.01,1.05,1.31,–,1.12,0.757,0.827,0.804,–,0.538,0.231,0.227,0.18,0.22,0.247,–,–,–,–,–
SK-MES-1,1.2,1.29,1.25,–,1.2,0.875,0.919,0.941,0.798,0.843,0.854,0.902,0.759,0.544,0.172,–,–,–,–,–
NCI-H661,–,–,–,–,–,0.941,–,1.01,1.08,0.98,0.93,0.967,0.933,0.866,0.291,–,–,–,–,–
NCI-H2342,–,–,–,–,–,1.01,1.04,1.06,0.978,1.14,0.69,1.01,0.794,0.798,0.581,0.462,0.513,0.689,0.609,0.347
SK-LU-1,0.829,0.851,0.887,0.938,0.806,0.822,0.778,0.787,0.902,0.848,0.238,0.223,0.211,0.154,0.13,–,–,–,–,–
A549,1.22,1.15,1.19,1.17,1.18,0.919,1.05,0.908,0.853,1.02,–,–,–,–,–,–,–,–,–,–
NCI-H2009,1.1,1.16,1.17,1.21,1.22,1.21,1.17,1.13,1.19,1.23,1.1,1.06,1.03,1.08,0.121,–,–,–,–,–
UMC-11,0.285,0.308,0.306,0.282,0.365,1.01,1.04,1.07,1.04,1.02,1.01,1.01,1.02,0.846,0.268,–,–,–,–,–
COR-L 105,0.771,–,0.908,0.871,0.76,1.07,1.02,1.12,0.797,1.15,0.721,0.737,0.788,0.503,0.236,–,–,–,–,–
EBC-1,0.49,0.344,0.12,0.152,0.16,0.0852,0.1,0.107,0.112,0.104,–,–,–,–,–,–,–,–,–,–
HCC-78,0.774,0.738,0.749,0.685,0.628,–,0.685,0.566,0.592,0.599,–,–,–,–,–,0.505,0.772,0.789,0.492,0.311
NCI-H1650,1.1,1.15,1.08,1.2,1.13,–,1.1,0.949,1.07,1.43,0.174,0.199,0.213,0.175,0.181,–,–,–,–,–
COR-L23,0.952,0.993,1.1,0.937,1.03,0.862,1,0.89,1.06,1.07,0.665,0.681,0.557,0.0931,0.0743,–,–,–,–,–
NCI-H2023,0.98,0.985,0.994,0.932,–,0.745,0.799,0.787,0.848,0.939,0.81,0.795,0.626,0.362,0.0768,–,–,–,–,–
NCI-H2228,1.01,1.2,0.648,0.996,0.409,0.872,0.997,0.699,0.81,0.434,0.145,0.152,0.161,0.123,0.144,–,–,–,–,–
HCC-366,0.991,1.11,1.06,–,1.17,0.913,0.841,0.893,–,0.95,–,–,–,–,–,0.231,0.276,0.251,0.419,0.212
NCI-H1299,1.04,1.02,1.01,1.07,1.01,1.03,1.07,1.04,1.08,1.06,–,–,–,–,–,–,–,–,–,–
NCI-H522,–,–,–,–,–,–,–,–,–,–,1.09,1.57,1.16,1.26,0.367,0.782,0.901,0.925,0.428,0.337
SW 900,–,–,–,–,–,0.935,0.877,0.823,1.01,0.742,0.164,0.196,0.213,0.172,0.149,–,0.67,0.226,0.168,0.206
NCI-H1563,–,–,–,–,–,0.93,–,0.888,0.904,1.05,0.538,0.455,0.512,0.457,0.466,–,–,–,–,–
SW 1573,0.683,–,0.97,0.945,0.932,0.85,0.762,0.905,0.77,0.98,0.317,0.23,0.368,0.0748,0.057,–,–,–,–,–
HCC-44,0.838,0.969,0.963,1.01,1.05,–,–,–,–,–,1.01,1.15,0.955,0.471,0.212,1.01,1.02,1.03,0.988,0.716
